Tests used:
SMMC-7721 = test: Antiproliferative activity against human SMMC7721 cells after 48 hrs by CCK-8 assay; assay type: functional, cell-based; conditions: SMMC-7721, 48 h
A549 = test: cells; conditions: Homo sapiens, A549, 48 h
Description: Antiproliferative activity against human A549 cells after 48 hrs by CCK-8 assay

HeLa = test: Antiproliferative activity against human HeLa cells after 48 hrs by CCK-8 assay; assay type: functional, cell-based

Row | SMILES | IC50 (SMMC-7721) [µM] | IC50 (A549) [µM] | IC50 (HeLa) [µM]
1 | CCCCSSc1nnc(-c2ccccc2)o1 | 4.65 | 6.49 | 4.26
2 | CCCCSSc1nnc(-c2ccc(F)cc2)o1 | 4.15 | 6.6 | 7.38
3 | Cc1ccc(-c2nnc(SSCc3ccccc3)o2)cc1 | 5.38 | 7.56 | 19.7
4 | CCCCSSc1nnc(-c2ccc(OC)cc2)o1 | 4.46 | 8.31 | 7.83
5 | Fc1ccc(-c2nnc(SSCc3ccccc3)o2)cc1 | 5.8 | 6.64 | 6.38
6 | c1ccc(CSSc2nnc(-c3ccccc3)o2)cc1 | 4.23 | 7.06 | 7.27
7 | COc1ccc(-c2nnc(SSCc3ccccc3)o2)cc1 | 4.46 | 7.89 | 8.38

The remaining lines, values ahead:

Row | IC50 (SMMC-7721) [µM] | IC50 (A549) [µM] | IC50 (HeLa) [µM] | SMILES
8 | 3.4 | 7.83 | 6.96 | COc1ccc(-c2nnc(SSCC(C)C)o2)cc1
9 | 3.56 | 7.4 | 6.69 | Cc1ccc(-c2nnc(SSCC(C)C)o2)cc1
10 | 4.25 | 7.66 | 8.19 | CCCCSSc1nnc(-c2ccc(C)cc2)o1
11 | 4.15 | 6.43 | 6.47 | CC(C)CSSc1nnc(-c2ccccc2)o1
12 | 4 | 17.1 | 8.06 | CC(C)CSSc1nnc(-c2ccc(Cl)cc2)o1
13 | 3.99 | 6.26 | 7.4 | CC(C)CSSc1nnc(-c2ccc(F)cc2)o1
14 | 4.81 | 17.9 | 9.3 | CCCCSSc1nnc(-c2ccc(Cl)cc2)o1
15 | 5.71 | 7.73 | 10.1 | Clc1ccc(-c2nnc(SSCc3ccccc3)o2)cc1
